Data taken from patent US10106516B2, “PDE10 inhibitors and related compositions and methods” (Omeros Corporation, priority 2010, dated 2018).

Biological target: T1, PDE10 (Homo sapiens, UniProt Q9Y233)
T1 construct: made in house; host or cells: Sf9 insect cells (baculovirus)
Experiment: PDE10 biochemical assay (two-step Thompson and Appleman method or SPA)
Conditions: PDE10 inhibition
Experimental: In short, cAMP is spiked with (^3H)cAMP and incubated with PDE10 and various concentrations of a compound of structure (I). After the appropriate incubation time, the reaction is terminated by heating. The mixture is then subjected to treatment with snake venom phosphatase. The phosphatase hydrolyzes any AMP in the mixture, but leaves unreacted cAMP intact. Thus, by separating cAMP from the mixture and determining its concentration (by radiography), the percent of inhibition can be determined. IC50 values can be calculated by performing the experiment at several concentrations using standard graphical means. A detailed description of the actual technique used for IC50 assays as set forth in following Examples.
The phosphodiesterase (PDE) assay was performed using recombinant human PDE 1A3, 2A3, 3 catalytic region, 4 catalytic region, 5 catalytic region, 7A, 8A, 9A2, 10A1 and 11A1 enzymes expressed in a baculoviral system using Sf9 cells. PDE activity was measured using a modification of the two-step method of Thompson and Appleman described above which was adapted for 96 well plate format. […] The final assay volume was 110 μl with assay buffer (10 mM MgCl2; 40 mM Tris.HCl; pH 7.4). Reactions were initiated with enzyme and incubated with (^3H)-substrate and substance for 20 minutes at 30° C. The reaction was terminated by denaturing the enzyme (heating the reaction to 70° C. for 2 minutes). The reaction was then cooled at 4° C. for 10 minutes before the addition of snake venom (Crotalus atrox, 0.2 mg/ml) for 10 minutes at 30° C., thus allowing non-specific hydrolysis of the tritiated substrate. Separation of the remaining unhydrolysed cyclic nucleotide was achieved by a batch binding of the mixture to activated Dowex (200 μl) anion exchange resin. The anion exchange resin bound the charged nucleotides, leaving only hydrolysed (^3H) substrate in the soluble fraction. The soluble fraction (50 μl) was then added to microscint-20 (200 μl) and counted on a Top Count Plate reader. Radioactivity units were plotted against inhibitor concentration and IC50 values obtained using Graph Pad Prism software.
Alternatively, phosphodiesterase activity was measured by scintillation proximity assay (SPA) with [^3H]-cGMP as substrate. Purified PDE10 was diluted and stored in 25 mM Tris-Cl (pH 8.0)/100 mM NaCl/0.05% Tween 20/50% glycerol/3 mM DTT. Assays contained (final concentrations): 50 mM Tris-Cl (pH 7.5)/8.3 mM MgCl2/1.7 mM EGTA/0.5 mg/ml BSA/5% DMSO and 2 ng PDE10 in a final volume of 0.1 mL. Inhibition was evaluated at 8 concentrations in duplicate. Reactions were initiated by addition of enzyme and were terminated after 20 minutes at 30° C. by the addition of 50 μl of SPA beads containing Zn^++. The mixture was shaken, allowed to settle for 3 hours, and counted in a Wallac plate counter. Results (net cpm) were fitted to a four parameter logistic model using Excel Solver®.

T1 sequence (Q9Y233 1-779 isoform Q9Y233-1): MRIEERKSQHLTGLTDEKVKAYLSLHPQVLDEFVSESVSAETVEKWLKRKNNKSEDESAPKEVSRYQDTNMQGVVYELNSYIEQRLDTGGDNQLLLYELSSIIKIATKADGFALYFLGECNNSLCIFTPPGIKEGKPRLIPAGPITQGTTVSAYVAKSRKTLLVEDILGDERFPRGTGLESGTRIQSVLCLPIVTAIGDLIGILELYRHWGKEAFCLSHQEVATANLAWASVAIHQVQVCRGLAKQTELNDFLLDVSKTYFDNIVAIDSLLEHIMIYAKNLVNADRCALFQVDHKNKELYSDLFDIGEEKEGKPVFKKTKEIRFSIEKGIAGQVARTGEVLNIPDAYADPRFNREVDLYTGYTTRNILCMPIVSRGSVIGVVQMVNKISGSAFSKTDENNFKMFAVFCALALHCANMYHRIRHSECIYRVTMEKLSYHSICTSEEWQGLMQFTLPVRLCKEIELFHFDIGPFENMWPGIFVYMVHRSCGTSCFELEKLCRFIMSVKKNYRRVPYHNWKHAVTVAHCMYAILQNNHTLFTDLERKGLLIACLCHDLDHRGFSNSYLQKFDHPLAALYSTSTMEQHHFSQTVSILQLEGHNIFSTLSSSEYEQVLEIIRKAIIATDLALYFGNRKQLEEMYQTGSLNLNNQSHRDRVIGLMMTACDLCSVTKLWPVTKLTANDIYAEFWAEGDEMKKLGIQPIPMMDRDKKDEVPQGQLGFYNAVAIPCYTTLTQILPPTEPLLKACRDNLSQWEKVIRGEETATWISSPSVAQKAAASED

Structure (SMILES) | IC50 [nM]
COc1cc(-c2ccc(C(=O)C(OC)c3ccc(-c4nnc(C)s4)cc3)o2)cc(OC)c1OC (stereo not drawn) [Compound 65-8] | ≤ 1000
COc1cc(-c2ccc(C(=O)C(OC)c3ccc(-c4nnc(C5CC5)o4)cc3)o2)cc(OC)c1Br (stereo not drawn) [Compound 22-1, 1-(5-(4-Bromo-3,5-Dimethoxyphenyl)Furan-2-Yl)-2-(4-(5-Cyclopropyl-1,3,4-Oxadiazol-2-Yl)Phenyl)-2-Methoxyethanone] | ≤ 1000
COc1cc(-c2ccc(C(=O)C(OC)c3ccc(-n4nccn4)cc3)o2)cc(OC)c1Br (stereo not drawn) [Compound 30-1, 2-(4-(2H-1,2,3-Triazol-2-Yl)Phenyl)-1-(5-(4-Bromo-3,5-Dimethoxyphenyl)Furan-2-Yl)-2-Methoxyethanone] | ≤ 1000
COc1cc(-c2ccc(C(=O)C(OC)c3ccc4c(c3)nnn4C)o2)cc(OC)c1Br (stereo not drawn) [Compound 25-1, 1-(5-(4-Bromo-3,5-Dimethoxyphenyl)Furan-2-Yl)-2-Methoxy-2-(1-Methyl-1H-Benzo[D][1,2,3]Triazol-5-Yl)Ethanone] | ≤ 1000
COc1cc(-c2ccc(C(=O)C(OC)c3ccc(-c4nnc(C)o4)cc3)o2)cc(OC)c1Br (stereo not drawn) [Compound 13-1, 1-(5-(4-Bromo-3,5-Dimethoxyphenyl)Furan-2-Yl)-2-Methoxy-2-(4-(5-Methyl-1,3,4-Oxadiazol-2-Yl)Phenyl)Ethanone] | ≤ 1000
COc1cc(-c2ccc(C(=O)C(OC)c3ccc(N4CCOCC4)cc3)o2)cc(OC)c1F (stereo not drawn) [Compound 48-1, 1-(5-(4-Fluoro-3,5-Dimethoxyphenyl)Furan-2-Yl)-2-Methoxy-2-(4-Morpholinophenyl)Ethanone] | ≤ 1000
COc1cc(-c2ccc(C(=O)C(OC)c3ccc(N4CCOCC4)cc3)s2)cc(OC)c1Br (stereo not drawn) [Compound 59-1, 1-(5-(4-Bromo-3,5-Dimethoxyphenyl)Thiophen-2-Yl)-2-Methoxy-2-(4-Morpholinophenyl)Ethanone] | ≤ 1000
COc1cc(-c2ccc(C(=O)C(OC)c3ccc(CN(C)C)cc3)o2)cc(OC)c1Br (stereo not drawn) [Compound 43-1, 1-(5-(4-Bromo-3,5-Dimethoxyphenyl)Furan-2-Yl)-2-(4-((Dimethylamino)Methyl)Phenyl)-2-Methoxyethanone] | ≤ 1000
COc1cc(-c2ccc(C(=O)C(OC)c3ccc(N4CCOCC4)cc3)o2)cc(OC)c1OC(F)F (stereo not drawn) [Compound 28-1, 1-(5-(4-(Difluoromethoxy)-3,5-Dimethoxyphenyl)Furan-2-Yl)-2-Methoxy-2-(4-Morpholinophenyl)Ethanone] | ≤ 1000
COc1cc(-c2coc(C(=O)C(OC)c3ccc(N4CCCCC4)cc3)n2)cc(OC)c1Br (stereo not drawn) [Compound 6-1, 1-(4-(4-Bromo-3,5-Dimethoxyphenyl)Oxazol-2-Yl)-2-Methoxy-2-(4-(Piperidin-1-Yl)Phenyl)Ethanone] | ≤ 1000
COc1cc(-c2cnc(C(=O)C(OC)c3ccc(N4CCOCC4)cc3)o2)cc(OC)c1Br (stereo not drawn) [Compound 56-1, 1-(5-(4-Bromo-3,5-Dimethoxyphenyl)Oxazol-2-Yl)-2-Methoxy-2-(4-Morpholinophenyl)Ethanone] | ≤ 1000
COc1cc(-c2ccc(C(=O)C(OC)c3ccc(-c4cn[nH]c4)cc3)o2)cc(OC)c1Br (stereo not drawn) [Compound 15-1, 2-(4-(1H-Pyrazol-4-Yl)Phenyl)-1-(5-(4-Bromo-3,5-Dimethoxyphenyl)Furan-2-Yl)-2-Methoxyethanone] | ≤ 1000
COc1cc(-c2ccc(C(=O)C(OC)c3ccc(-c4nnc(C)o4)cc3)o2)cc(OC)c1F (stereo not drawn) [Compound 62-1, 1-(5-(4-Fluoro-3,5-Dimethoxyphenyl)Furan-2-Yl)-2-Methoxy-2-(4-(5-Methyl-1,3,4-Oxadiazol-2-Yl)Phenyl)Ethanone] | ≤ 1000
COc1cc(-c2ccc(C(=O)C(OC)c3ccc(CN4CCOCC4)cc3)o2)cc(OC)c1Br (stereo not drawn) [Compound 26-1, 1-(5-(4-Bromo-3,5-Dimethoxyphenyl)Furan-2-Yl)-2-Methoxy-2-(4-(Morpholinomethyl)Phenyl)Ethanone] | ≤ 1000
COc1cc(-c2coc(C(=O)C(OC)c3ccc(OC(F)(F)F)cc3)n2)cc(OC)c1Br (stereo not drawn) [Compound 65-3] | ≤ 1000
COc1cc(-c2ccc(C(=O)C(OC)c3ccc(-c4cccnc4)cc3)o2)cc(OC)c1Br (stereo not drawn) [Compound 37-1, 1-(5-(4-Bromo-3,5-Dimethoxyphenyl)Furan-2-Yl)-2-Methoxy-2-(4-(Pyridin-3-Yl)Phenyl)Ethanone] | ≤ 1000
COc1cc(-c2ccc(C(=O)C(OC)c3ccc(N4CCOCC4)cc3)o2)cc(OC)c1OC (stereo not drawn) [Compound 65-7] | ≤ 1000

Structure (SMILES) | IC50 [nM]
COc1cc(-c2cn(C)c(C(=O)C(OC)c3ccc(N4CCOCC4)cc3)n2)cc(OC)c1Br (stereo not drawn) [Compound 4-1, 1-(4-(4-Bromo-3,5-Dimethoxyphenyl)-1-Methyl-1H-Imidazol-2-Yl)-2-Methoxy-2-(4-Morpholinophenyl)Ethanone] | ≤ 1000
COc1cc(-c2ccc(C(=O)C(OC)c3ccc(-c4nnc(C)o4)cc3)o2)cc(Br)c1OC (stereo not drawn) [Compound 39-1, 1-(5-(3-Bromo-4,5-Dimethoxyphenyl)Furan-2-Yl)-2-Methoxy-2-(4-(5-Methyl-1,3,4-Oxadiazol-2-Yl)Phenyl)Ethanone] | ≤ 1000
COc1ccc(-c2ccn(C(=O)C(OC)c3ccc(N4CCOCC4)cc3)n2)cc1OC (stereo not drawn) [Compound 53-1, 1-(3-(3,4-Dimethoxyphenyl)-1H-Pyrazol-1-Yl)-2-Methoxy-2-(4-Morpholinophenyl)Ethanone] | ≤ 1000
COc1cc(-c2ccc(C(=O)C(OC)c3ccc(-c4nnc(C)o4)cc3)o2)cc(OC)c1C (stereo not drawn) [Compound 21-1, 1-(5-(3,5-Dimethoxy-4-Methylphenyl)Furan-2-Yl)-2-Methoxy-2-(4-(5-Methyl-1,3,4-Oxadiazol-2-Yl)Phenyl)Ethanone] | ≤ 1000
COc1cc(OC)cc(-c2ccc(C(=O)C(OC)c3ccc(N4CCOCC4)cc3)o2)c1 (stereo not drawn) [Compound 27-1, 1-(5-(3,5-Dimethoxyphenyl)Furan-2-Yl)-2-Methoxy-2-(4-Morpholinophenyl)Ethanone] | ≤ 1000
COc1cc(-c2coc(C(=O)C(OC)c3ccc(OC(C)C)cc3)n2)cc(OC)c1Br (stereo not drawn) [Compound 8-1, 1-(4-(4-Bromo-3,5-Dimethoxyphenyl)Oxazol-2-Yl)-2-(4-Isopropoxyphenyl)-2-Methoxyethanone] | ≤ 1000
CCOC(C(=O)c1ccc(-c2cc(OC)c(F)c(OC)c2)o1)c1ccc(-c2nnc(C)o2)cc1 (stereo not drawn) [Compound 65-13] | ≤ 1000
COc1cc(-c2ccc(C(=O)C(OC)c3ccc(-c4nnc(C)o4)cc3)o2)cc(OC)c1O (stereo not drawn) [Compound 65-15] | ≤ 1000
COc1cc(-c2ccc(C(=O)C(OC)c3ccc(-c4nnc(C)o4)cc3)o2)cc(C#N)c1OC (stereo not drawn) [Compound 17-1, 2,3-Dimethoxy-5-(5-(2-Methoxy-2-(4-(5-Methyl-1,3,4-Oxadiazol-2-Yl)Phenyl)Acetyl)Furan-2-Yl)Benzonitrile] | ≤ 1000
COc1cc(-c2ccc(C(=O)C(OC)c3ccc(-c4cnccn4)cc3)o2)cc(OC)c1Br (stereo not drawn) [Compound 45-1, 1-(5-(4-Bromo-3,5-Dimethoxyphenyl)Furan-2-Yl)-2-Methoxy-2-(4-(Pyrazin-2-Yl)Phenyl)Ethanone] | ≤ 1000
COc1cc(-c2coc(C(=O)C(OC)c3ccc(-n4nccn4)cc3)n2)cc(OC)c1Br (stereo not drawn) [Compound 65-5] | ≤ 1000
COc1cc(-c2ccc(C(=O)C(OC)c3ccc(N4CCOCC4)cc3)o2)cc(OC)c1Cl (stereo not drawn) [Compound 50-1, 1-(5-(4-Chloro-3,5-Dimethoxyphenyl)Furan-2-Yl)-2-Methoxy-2-(4-Morpholinophenyl)Ethanone] | ≤ 1000
COc1cc(-c2nc(C(=O)C(OC)c3ccc(N4CCOCC4)cc3)no2)cc(OC)c1Br (stereo not drawn) [Compound 54-1, 1-(5-(4-Bromo-3,5-Dimethoxyphenyl)-1,2,4-Oxadiazol-3-Yl)-2-Methoxy-2-(4-Morpholinophenyl)Ethanone] | ≤ 1000
COc1cc(-c2ccn(C(=O)C(OC)c3ccc(N4CCOCC4)cc3)n2)cc(OC)c1Br (stereo not drawn) [Compound 52-1, 1-(3-(4-Bromo-3,5-Dimethoxyphenyl)-1H-Pyrazol-1-Yl)-2-Methoxy-2-(4-Morpholinophenyl)Ethanone] | ≤ 1000
COc1cc(-c2ccc(C(=O)C(OC)c3ccc(N4CCOCC4)nc3)o2)cc(OC)c1Br (stereo not drawn) [Compound 44-1, 1-(5-(4-Bromo-3,5-Dimethoxyphenyl)Furan-2-Yl)-2-Methoxy-2-(6-Morpholinopyridin-3-Yl)Ethanone] | ≤ 1000
CCOC(C(=O)c1ccc(-c2cc(OC)c(Br)c(OC)c2)o1)c1ccc(-c2nnc(C)s2)cc1 (stereo not drawn) [Compound 65-11] | ≤ 1000
